# According to patent publication US20200038418A1, “METHODS OF TREATING AUTISM SPECTRUM DISORDER USING AMINOSTEROL COMPOSITIONS” (Enterin, Inc., priority 2018, published 2020):
# Columns and labels:
# [1] = single and repeat intravenous administration, alone or in combination; cited from earlier work
# [2] = test system: mice with constipation due to overexpression of human αS; test: Gastrointestinal motility in mouse models of PD; assay type: in vivo
# [3] = test system: IPANs (intrinsic primary afferent neuron); test: Perfusion of isolated segment of bowel from the PD mouse model; settings: perfusion through the lumen of isolated bowel segment from PD mouse model
# [4] = intravenous administration, prior studies; cited from earlier work
# [5] = systemic administration, mice; cited from earlier work
SMILES,dose well tolerated [1],"gastro-intestinal motility ([2]; orally administered, mice with constipation due to overexpression of human αS)",effect on gastrointestinal dysmotility ([2]; several mouse models of PD),effect on IPANs and peristaltic contractions [3],gastrointestinal motility [4],clearance and excretion [5]
CC(C)[C@@H](CC[C@@H](C)[C@H]1CC[C@H]2[C@@H]3[C@H](O)C[C@H]4C[C@@H](NCCCNCCCCN)CC[C@]4(C)[C@H]3CC[C@]12C)OS(=O)(=O)O.C[C@H](O)C(=O)O.C[C@H](O)C(=O)O [squalamine dilactate salt],at least 300 mg/m^2,–,–,–,–,–
CC(C)[C@@H](CC[C@@H](C)[C@H]1CC[C@H]2[C@@H]3[C@H](O)C[C@H]4C[C@@H](NCCCNCCCCN)CC[C@]4(C)[C@H]3CC[C@]12C)OS(=O)(=O)O [squalamine],–,stimulates gastro-intestinal motility,reverse gastrointestinal dysmotility,excitation of IPANs,not associated with increased gastrointestinal motility,cleared by the liver and excreted as the intact molecule
